What all share (assay type): in vivo, Male Wistar rats
Data set [1] relates to remnant kidney (RK) rats. As to the kind of experiment: Body weight, food and water intake in remnant kidney rats. Particulars: RK rats (RK + Fx or RK + OA group). The method, then:
Male Wistar rats (295-340 g) were used to produce rats with remnant kidney (RK) as follows. […] Rats were then assigned to one of four treatment groups: Group 1, RK control rats (n=7); Group 2, RK+febuxostat (Fx) rats (n=8); Group 3, RK+oxonic acid (OA) rats (n=6); and Group 4, RK+OA+Fx (n=10). Oxonic acid (OA) (Sigma-Aldrich, St Louis Mo., USA), administered at 750 mg/kg body weight daily by oral gavage, was given starting the day after the ⅚ nephrectomy. Beginning immediately following the surgery, febuxostat was administered in drinking water at 30 mg/L (3-4 mg/kg/day), whereas the respective controls received only drinking water (with 3.5 mg/L of NaCl added to keep an equivalent salt concentration to the Fx-containing water). All groups were treated for four weeks. Body weight (beginning just before surgery) and food and water intakes were measured daily. Systolic blood pressure, measured in conscious rats by a tail cuff sphygmomanometer, and plasma uric acid (UA) levels were measured at just before surgery (namely, at baseline) and at the end of the four weeks. Proteinuria was measured at baseline and at the end of two and four weeks. A renal micropuncture procedure along with systemic blood pressure monitoring under pentobarbital anesthesia was performed at the end of four weeks followed by morphologic evaluation of the renal preglomerular microvasculature. Food and water intake were determined daily. Systolic blood pressure (SBP) was measured by a tail-cuff sphygmomanometer using an automated system (XBP-100; Kent Scientific Co, Torrington, Conn., USA) in conscious animals. All animals were preconditioned for blood pressure measurements one week before each experiment. Plasma uric acid was quantified using a commercial kit (Diagnostic Chemicals Ltd, Charlottetown, PEI, Canada). Proteinuria was determined by turbidimetry by the method of trichloroacetic acid as described in Henry R J et al., “Turbidimetric determination of proteins with sulfosalicylic and tricholoroacetic acids”, Proc Soc Exp Biol Med 92:748-751 (1956), the contents of which are herein incorporated by reference.

In data set [2] the test system is remnant kidney (RK) rats. As to the kind of experiment: Plasma uric acid in remnant kidney rats. Particulars: RK+OA rats, end of four weeks. On the procedure: Male Wistar rats (295-340 g) were used to produce rats with remnant kidney (RK) as follows. […] Rats were then assigned to one of four treatment groups: Group 1, RK control rats (n=7); Group 2, RK+febuxostat (Fx) rats (n=8); Group 3, RK+oxonic acid (OA) rats (n=6); and Group 4, RK+OA+Fx (n=10). Oxonic acid (OA) (Sigma-Aldrich, St Louis Mo., USA), administered at 750 mg/kg body weight daily by oral gavage, was given starting the day after the ⅚ nephrectomy. Beginning immediately following the surgery, febuxostat was administered in drinking water at 30 mg/L (3-4 mg/kg/day), whereas the respective controls received only drinking water (with 3.5 mg/L of NaCl added to keep an equivalent salt concentration to the Fx-containing water). All groups were treated for four weeks. Body weight (beginning just before surgery) and food and water intakes were measured daily. Systolic blood pressure, measured in conscious rats by a tail cuff sphygmomanometer, and plasma uric acid (UA) levels were measured at just before surgery (namely, at baseline) and at the end of the four weeks. Proteinuria was measured at baseline and at the end of two and four weeks. A renal micropuncture procedure along with systemic blood pressure monitoring under pentobarbital anesthesia was performed at the end of four weeks followed by morphologic evaluation of the renal preglomerular microvasculature. Food and water intake were determined daily. Systolic blood pressure (SBP) was measured by a tail-cuff sphygmomanometer using an automated system (XBP-100; Kent Scientific Co, Torrington, Conn., USA) in conscious animals. […] Plasma uric acid was quantified using a commercial kit (Diagnostic Chemicals Ltd, Charlottetown, PEI, Canada). Proteinuria was determined by turbidimetry by the method of trichloroacetic acid as described in Henry R J et al., “Turbidimetric determination of proteins with sulfosalicylic and tricholoroacetic acids”, Proc Soc Exp Biol Med 92:748-751 (1956), the contents of which are herein incorporated by reference.

Data set [3] deals with remnant kidney (RK) rats. As to the kind of experiment: Micropuncture procedure to assess glomerular hemodynamics. On the procedure: Male Wistar rats (295-340 g) were used to produce rats with remnant kidney (RK) as follows. […] Rats were then assigned to one of four treatment groups: Group 1, RK control rats (n=7); Group 2, RK+febuxostat (Fx) rats (n=8); […] Oxonic acid (OA) (Sigma-Aldrich, St Louis Mo., USA), administered at 750 mg/kg body weight daily by oral gavage, was given starting the day after the 5⁄6 nephrectomy. […] All groups were treated for four weeks. Body weight (beginning just before surgery) and food and water intakes were measured daily. Systolic blood pressure, measured in conscious rats by a tail cuff sphygmomanometer, and plasma uric acid (UA) levels were measured at just before surgery (namely, at baseline) and at the end of the four weeks. Proteinuria was measured at baseline and at the end of two and four weeks. A renal micropuncture procedure along with systemic blood pressure monitoring under pentobarbital anesthesia was performed at the end of four weeks followed by morphologic evaluation of the renal preglomerular microvasculature. Animals were anesthetized with pentobarbital sodium (30 mg/kg, intraperitoneal (ip)) and placed on a thermoregulated table to maintain body temperature at 37° C. Trachea, jugular veins, femoral arteries and the left ureter were catheterized with polyethylene tubing (PE-240, PE-50, and PE-10). The left kidney was exposed, placed in a Lucite holder, sealed with agar, and covered with Ringer's solution. Mean arterial pressure (MAP) was monitored with a pressure transducer (Model p23 db; Gould, San Juan, Puerto Rico) connected to the catheter in the femoral artery and recorded on a polygraph (Grass Instruments, Quincy, Mass., USA). Blood samples were taken periodically and replaced with blood from a donor rat. Rats were maintained under euvolemic conditions by infusion of 10 mL/kg of body weight of isotonic rat plasma during surgery, followed by an infusion of 25%, polyfructosan, at 2.2 ml/h (Inutest; Fresenius Kabi, Linz, Austria). After 60 minutes, five to seven samples of proximal tubular fluid were obtained to determine flow rate and polyfructosan concentrations. Intratubular pressure under free-flow (FF) and stop-flow (SFP) conditions and peritubular capillary pressure (Pc) were measured in other proximal tubules with a servo-null device (Servo Nulling Pressure System; Instrumentation for Physiology and Medicine, San Diego, Calif., USA). Glomerular colloid osmotic pressure was estimated from protein concentrations obtained from blood of the femoral artery (Ca) and surface efferent arterioles (Ce). Polyfructosan was measured in plasma and urine samples by the anthrone-based technique described by Davidson and […] in “Simplification of the anthrone method for the determination of inulin in clearance studies,” J Lab Clin Med. 62:351-356 (1963), the contents of which are herein incorporated by reference. In brief, plasma samples were deproteinated first with trichloroacetic acid. After centrifugation, the supernatant was used for polyfructosan measurement. Polyfructosan concentrations in plasma and urine samples were assessed by the addition of anthrone reagent followed by incubation at 45° C. for 50 minutes and reading in a spectrophotometer set at wavelength of 620 nm. […] Total GFR was calculated using the following formula: GFR=(U×V)/P, where U is the polyfructosan concentration in urine, V is urine flow rate, and P is the polyfructosan concentration in plasma. The volume of fluid collected from individual proximal tubules was estimated from the length of the fluid column in a constant-bore capillary tube of known internal diameter. The concentration of tubular polyfructosan was measured by the microfluorometric method described by Vurek and Pegram in “Fluorometric method for the determination of nanogram quantities of inulin,” Anal Biochem 16:409-419 (1966), the contents of which are herein incorporated by reference. […]

Data set [4] relates to remnant kidney (RK) rats. The experiment in a line: Renal arteriolar morphology. Particulars: RK rats vs RK control group. The method, then:
Male Wistar rats (295-340 g) were used to produce rats with remnant kidney (RK) as follows. […] Rats were then assigned to one of four treatment groups: Group 1, RK control rats (n=7); Group 2, RK+febuxostat (Fx) rats (n=8); Group 3, RK+oxonic acid (OA) rats (n=6); and Group 4, RK+OA+Fx (n=10). Oxonic acid (OA) (Sigma-Aldrich, St Louis Mo., USA), administered at 750 mg/kg body weight daily by oral gavage, was given starting the day after the 5⁄6 nephrectomy. Beginning immediately following the surgery, febuxostat was administered in drinking water at 30 mg/L (3-4 mg/kg/day), whereas the respective controls received only drinking water (with 3.5 mg/L of NaCl added to keep an equivalent salt concentration to the Fx-containing water). After the micropuncture study, kidneys were washed by perfusion with phosphate-buffered saline and then fixed with 4% paraformaldehyde. Renal biopsies were embedded in paraffin. Sections of 4-μm thick fixed tissue were stained with periodic acid Schiff (PAS) reagent and Masson's trichrome staining. Arteriolar morphology was assessed by indirect peroxidase immunostaining for alpha-smooth muscle actin (DAKO Corp, Carpinteria, Calif., USA). Renal sections incubated with normal rabbit serum were used as negative controls for immunostaining against alpha smooth-muscle actin. For each arteriole, the outline of the vessel and its internal lumen (excluding the endothelium) were generated using computer analysis to calculate the total medial area (outline inline), in 10 arterioles per biopsy. The media/lumen ratio was calculated by the outline/inline relationship (See, Sanchez-Lozada L G et al., “Mild hyperuricemia induces glomerular hypertension in normal rats”, Am J Physiol Renal Physiol 283:[…]-[…] (2002); Sanchez-Lozada L G, et al., “Mild hyperuricemia induces vasoconstriction and maintains glomerular hypertension in normal and remnant kidney rats,” Kidney Int 67:237-247 (2005), the contents of each are herein incorporated by reference). Quantifications were performed blinded.

Setting [5] is: RK rats (RK + Fx or RK + OA group), end of four weeks.

`O=C(O)c1nc(=O)[nH]c(=O)[nH]1` [OA, oxonic acid, reference compound]: in the data set with remnant kidney (RK) rats [1] (End of Week 4), the BW is on record as 328.5 ± 6.6 g and the “BW Gain (from baseline)” value is 5.5 ± 10.3 g. Besides, in the data set on remnant kidney (RK) rats [1] (Week 1), the “Daily Food Intake” value stood at 14.2 ± 2.1 g and the “Daily Water Intake” value stood at 44.3 ± 3.5 mL. In the data set on remnant kidney (RK) rats [1] (Week 2), the “Daily Food Intake” value worked out at 19.7 ± 0.7 g and the “Daily Water Intake” value stood at 58.6 ± 1.4 mL. Also, in the data set with remnant kidney (RK) rats [1] (Week 3), the “Daily Food Intake” value amounted to 21.3 ± 1.0 g and the “Daily Water Intake” value turned out to be 57.2 ± 2.6 mL. In the data set on remnant kidney (RK) rats [1] (Week 4), the “Daily Food Intake” value amounted to 20.7 ± 0.9 g and the “Daily Water Intake” value amounted to 48.6 ± 3.0 mL. For the same compound, the “Plasma uric acid relative to the RK control rats (in words)” value with remnant kidney (RK) rats [2] is “increased significantly by over two-fold”. Further, in the data set on remnant kidney (RK) rats [3] (setting [5]), the GFR is recorded as 0.29 ± 0.06 mL/min, the Kf was found to be 0.027 ± 0.003 nL/s · mmHg, the PGC was 64.4 ± 1.1 mmHg and the QA was 170 ± 16 nL/min. Also, in the data set with remnant kidney (RK) rats [3] (setting [5]), the SNGFR was determined as 51.3 ± 4.8 nL/min. Besides, the MAP with remnant kidney (RK) rats [3] (RK rats (RK + Fx or RK + OA group), end of four weeks, under anesthesia) worked out at 198 ± 10 mmHg. Moreover, the “Glomerular plasma flow (in words)” value in the data set on remnant kidney (RK) rats [3] (RK+OA group) is “significant decrease”. Moreover, in the data set on remnant kidney (RK) rats [3] (RK+OA rats vs RK control group), the “GFR (in words)” value is given as “similarly low as in the RK control group” and the “Single-nephron GFR (in words)” value was “lower compared to the RK control group”. For the same compound, the “Afferent resistance (in words)” value in the data set on remnant kidney (RK) rats [3] (RK+OA rats vs RK control rats) is “significantly elevated”. Further, the “Thickening of preglomerular vessels / afferent arteriole (in words)” value in the data set with remnant kidney (RK) rats [4] is “developed additional thickening of the afferent arteriole”.

For the origin of these results see patent US20130143886A1, “METHODS FOR PRESERVING AND/OR INCREASING RENAL FUNCTION USING XANTHINE OXIDOREDUCTASE INHIBITORS” (priority 2006, published 2013).
